# Assay results: patent US6680325B2, “Agents for combating plant pests” (Bayer Aktiengesellschaft, priority 1998, dated 2004)
# Read-outs that look alike come from different tables or passages of the source.
# Key:
# Fusarium culmorum = Fusarium culmorum test (wheat)/seed treatment; type: in vivo; conditions: 75 g/ha, dry seed dressing, approximately 3 weeks after sowing
# Description: Fusarium Culmorum Test (Wheat)/Seed Treatment
# The active compounds are applied as a dry dressing. They are prepared by extending the active compound in question with ground minerals to give a finely pulverulent mixture which ensures even distribution on the surface of the seeds.
# For the dressing, the infected seeds are shaken with the dressing in a closed glass bottle for 3 minutes.
# 2×100 seeds of the wheat are sown at a depth of 1 cm into standard soil, and the wheat is cultivated in a greenhouse at a temperature of approximately 18° C. and at a relative atmospheric humidity of approximately 95% in seed containers receiving 15 hours of light per day.
# The evaluation of the plants for symptoms is carried out approximately 3 weeks after sowding.
# Botrytis cinerea = assay: Botrytis test (bean)/protective; conditions: 2 days after inoculation
# Description: If the actual fungicidal activity exceeds the calculated value, then the activity of the combination is superadditive, i.e. a synergistic effect exists. In this case, the efficacy which was actually observed must be greater than the value for the expected efficacy (E) calculated from the formula set out above.
# After the spray coating has dried on, 2 small pieces of agar colonized by Botrytis cinerea are placed onto each leaf. The inoculated plants are placed in a dark chamber at approximately 20° C. and 100% relative atmospheric humidity.
# 2 days after the inoculation, the size of the disease spots on the leaves is evaluated.
# Spodoptera frugiperda [1] = assay: Critical concentration test/root systemic action, Spodoptera frugiperda (maize); type: in vivo
# Description: The preparation of active compound is mixed intimately with soil. Here, the concentration of the active compound in the preparation is virtually immaterial; only the amount by weight of active compound per volume unit of soil, which is stated in ppm (mg/l), matters. The soil is filled into 250 ml pots and these are allowed to stand at 20° C.
# Immediately after preparation, 3 maize corns are placed into each pot. 14 days after the preparation, the test insects are placed into an insect bracket and attached to the plant. 4 days after the infection, the efficacy of the active compound is determined in % by counting the dead and live test insects. The efficacy is 100% if all test insects have been killed; it is 0% if the same number of test insects is alive as in the untreated control.
# [2] = test system: caterpillars of the diamondback moth (Plutella xylostella); assay: Plutella test (cabbage leaf dip); type: in vivo
# Spodoptera frugiperda [3] = assay: Critical concentration test/soil insects, Spodoptera frugiperda (maize); type: in vivo
# Description: (§1) The active compound preparation is mixed intimately with soil. Here, the concentration of the active compound in the preparation is almost irrelevant; only the amount by weight of active compound or active compound mixture per volume unit of soil, which is stated in ppm (mg/l), matters.
# [4] = test system: Phaedon cochleariae larvae; assay: Critical concentration test/root-systemic action, Phaedon cochleariae (cabbage); type: in vivo
# Description: as §1
# Soil is filled into 250 ml pots and these are planted with cabbage (Brassica oleracea). The active compound or the active compound combination can thus be taken up by the plant roots from the soil and transported into the leaves.
# [5] = test system: Erysiphe graminis f.sp. hordei; assay: Erysiphe test (barley)/protective; type: in vivo; conditions: 62.5 g/ha, 7 days after inoculation; single value given
# [6] = test system: larvae of the mustard beetle (Phaedon cochleariae); assay: Phaedon larvae test (cabbage leaf dip)
# Pyrenophora teres = Pyrenophora teres test (barley)/protective; type: in vivo; conditions: 7 days after inoculation, single value given
# Description: After the spray coating has dried on, the plants are sprayed with a conidia suspension of Pyrenophora teres.
# The plants are then placed in a greenhouse at a temperature of approximately 20° C. and a relative atmospheric humidity of approximately 80%.
# Evaluation is carried out 7 days after the inoculation.
# Sphaerotheca fuliginea = assay: Sphaerotheca test (cucumber)/protective; type: in vivo; conditions: 10 days after inoculation
# Description: After the spray coating has dried on, the plants are inoculated with an aqueous spore suspension of Sphaerotheca fuliginea.
# (§2) Evaluation is carried out 10 days after the inoculation.
# Phytophthora infestans = type: in vivo; conditions: 3 days after inoculation
# Puccinia recondita = assay: Puccinia test (wheat)/protective; type: in vivo; conditions: 18.75 g/ha, 10 days after inoculation
# Description: After the spray coating has dried on, the plants are sprayed with a conidia suspension of Puccinia recondita.
# The plants are then placed in a greenhouse at a temperature of approximately 20° C. and a relative atmospheric humidity of 80% to promote the development of rust pustules.
# as §2
# [7] = test system: green rice leaf hopper (Nephotettix cincticeps); assay: Nephotettix test (rice seedling dip); type: in vivo
# [8] = test system: Heliothis virescens caterpillars; assay: Heliothis virescens test (soya bean shoot dip); type: in vivo
# [9] = test system: Diabrotica balteata - larvae in the soil; assay: Critical concentration test/soil insects, Diabrotica balteata larvae in the soil (maize); type: in vivo
# Description: Here, the concentration of the active compound in the preparation is almost irrelevant; only the amount by weight of active compound per volume unit of soil, which is stated in ppm (mg/l), matters. The soil is filled into 0.51 pots and these are allowed to stand at 20° C.
# Immediately after preparation, 5 maize corns are placed into each pot. After 3 days, the test insects are placed into the treated soil. After a further 7 days, the efficacy is determined. The efficacy is calculated from the number of maize plants which have emerged.
# [10] = Spodoptera frugiperda, 120 h, 20.00 ppm in soil, read-out: Kill in %
# [11] = Spodoptera frugiperda, soil, 120 h, read-out: Kill in %
compound,measurement,setting,value
N#Cc1c[nH]cc1-c1cccc2c1OC(F)(F)O2 [fludioxonil],Efficacy in %,Fusarium culmorum,0%
same,Efficacy in % found,Botrytis cinerea; 10 g/ha,40%
OC(Cc1ccccc1Cl)(Cn1nc[nH]c1=S)C1(Cl)CC1 (centres unmarked) [compound of group (49)],Kill in %,Spodoptera frugiperda [1]; 5.00 ppm in soil,5.00 ppm = 0%
CC(C)(C)C(O)(CCc1ccc(Cl)cc1)Cn1cncn1 (centres unmarked) [tebuconazole],Kill in %,[2]; concentration 0.02 %,0%
same,pest or weed control at 20 ppm,Spodoptera frugiperda [3]; [10],0%
same,Kill in %,[4]; 20.00 ppm in soil,0%
same,Efficacy in % found,Botrytis cinerea; 100 g/ha,80%
CC(C)(C)C(O)C(Oc1ccc(-c2ccccc2)cc1)n1cncn1 (centres unmarked) [bitertanol],pest or weed control at 20 ppm,Spodoptera frugiperda [3]; [10],0%
same,Kill in %,[4]; 20.00 ppm in soil,0%
CO/N=C(/C(=O)OC)c1ccccc1COc1ccccc1C [kresoxim-methyl],Efficacy in % calculated/found,[5],0%
same,Kill in %,[6]; concentration 0.1 %,0%
[O-][n+]1nc(-n2ccnc2)nc2ccc(Cl)cc21 [triazoxides],Efficacy in % calculated/found,Pyrenophora teres; 62.5 g/ha,40%
N#Cc1c[nH]cc1-c1cccc(Cl)c1Cl [fenpiclonil],pest or weed control at 20 ppm,Spodoptera frugiperda [3]; [10],0%
same,Kill in %,[4]; 20.00 ppm in soil,0%
same,Efficacy in % found,Sphaerotheca fuliginea; 500 g/ha,50%
CC(C)(C)C(O)C(Oc1ccc(Cl)cc1)n1cncn1 (centres unmarked) [triadimenol],pest or weed control at 20 ppm,Spodoptera frugiperda [3]; [10],0%
same,Kill in %,[4]; 20.00 ppm in soil,0%
same,Efficacy in % found,Phytophthora infestans; 500 g/ha,0%
same,Efficacy in %,Fusarium culmorum,13.5%
same,Efficacy in %,Puccinia recondita,13%
COCC(=O)N(c1c(C)cccc1C)C(C)C(=O)OC (centres unmarked) [metalaxyl],Kill in %,[2]; concentration 0.1 %,0%
same,Kill in %,[7]; concentration 0.1 %,0%
same,pest or weed control at 20 ppm,Spodoptera frugiperda [3]; [10],0%
same,Kill in %,[4]; 20.00 ppm in soil,0%
same,Efficacy in % found,Phytophthora infestans; 50 g/ha,42%
CNC(=N[N+](=O)[O-])NCc1cnc(Cl)s1 [formula (I)],Kill in %,[2]; concentration 0.0008 %,0%
same,Kill in %,[8]; concentration 0.00016 %,50%
same,Kill in %,[7]; concentration 0.00000128 %,0%
same,pest or weed control at 0.06 ppm,Spodoptera frugiperda [3]; [11],98%
same,pest or weed control at 0.3 ppm,Spodoptera frugiperda [3]; [11],50%
same,pest or weed control at 1.25 ppm,Spodoptera frugiperda [3]; [11],100%
same,Kill in %,[4]; 0.30 ppm in soil,50%
same,Kill in %,[4]; 0.60 ppm in soil,80%
same,Kill in %,[4]; 1.25 ppm in soil,100%
same,Efficacy in % found,Sphaerotheca fuliginea; 10 g/ha,0%
same,Efficacy in % found,Sphaerotheca fuliginea; 500 g/ha,0%
same,Efficacy in %,Fusarium culmorum,0%
same,Efficacy in %,Puccinia recondita,0%
same,Efficacy in % calculated/found,Pyrenophora teres; 18.75 g/ha,20%
same,Efficacy in % calculated/found,Pyrenophora teres; 62.5 g/ha,0%
same,Efficacy in % calculated/found,[5],0%
same,Kill in %,Spodoptera frugiperda [1]; 0.15 ppm in soil,0.15 ppm = 50%
same,Kill in %,[9]; 0.15 ppm in soil,0.15 ppm = 0%
same,Kill in %,[9]; 0.30 ppm in soil,0.30 ppm = 50%
same,Efficacy in % found,Botrytis cinerea; 10 g/ha,0%
same,Efficacy in % found,Botrytis cinerea; 100 g/ha,4%
same,Kill in %,[6]; concentration 0.000032 %,0%
same,Kill in %,[6]; concentration 0.00016 %,20%
CO/C=C(/C(=O)OC)c1ccccc1Oc1cc(Oc2ccccc2C#N)ncn1 [azoxystrobin],Kill in %,[8]; concentration 0.0008 %,0%
same,pest or weed control at 20 ppm,Spodoptera frugiperda [3]; [10],0%
same,Kill in %,[4]; 20.00 ppm in soil,0%
same,Efficacy in % calculated/found,Pyrenophora teres; 18.75 g/ha,0%
CO/N=C(\C1=NOCCO1)c1ccccc1Oc1ncnc(Oc2ccccc2Cl)c1F [compound according to (48)],Kill in %,[9]; 20.00 ppm in soil,20.00 ppm = 0%
Cc1noc(C)c1S(=O)(=O)n1c(Cl)nc2cc3c(cc21)OC(F)(F)O3 [compound according to (50)],Kill in %,[9]; 20.00 ppm in soil,20.00 ppm = 70%
propiconazole,Kill in %,Spodoptera frugiperda [3]; 20.00 ppm in soil,0%
same,Kill in %,[4]; 20.00 ppm in soil,0%
same,Efficacy in % found,Phytophthora infestans; 500 g/ha,5%
CC(C1CC1)C(O)(Cn1cncn1)c1ccc(Cl)cc1 (centres unmarked) [cyproconazole],pest or weed control at 20 ppm,Spodoptera frugiperda [3]; [10],0%
same,Efficacy in % found,Sphaerotheca fuliginea; 10 g/ha,70%
